Experimental data reported in patent US20160002273A1, “THIENO[3,2-D]PYRIMIDINE-6-CARBOXAMIDES AND ANALOGUES AS SIRTUIN MODULATORS” (GLAXOSMITHKLINE LLC, priority 2013, published 2016).
pIC50: −log10 of the molar value. In brackets after ≈: the same amount, converted by molar mass. Like-named read-outs stand apart in the source and are kept apart here.

What was measured:
[1] = HPLC based lipophilicity assay (CHI LogD); format: physicochemical; details: CHI values by reverse phase HPLC transformed to a LogD scale
[2] = Kinetic solubility by chemi-luminescent nitrogen detection (CLND); format: physicochemical; details: aqueous buffer, kinetic from dmso stock, DMSO stock incubated 1 hr in phosphate buffered saline pH 7.4, filtered
SIRT1 = target: T1, SIRT1 (Homo sapiens, UniProt Q96EB6); test: SIRT1 deacetylation of Trp 5-mer peptide, OAADPr mass spec assay; details: for pIC50: Trp SIRT1_IC50, Trp 5-mer peptide, class symbols; for IC50: mean of at least three determinations
T1 sequence (Q96EB6 1-747): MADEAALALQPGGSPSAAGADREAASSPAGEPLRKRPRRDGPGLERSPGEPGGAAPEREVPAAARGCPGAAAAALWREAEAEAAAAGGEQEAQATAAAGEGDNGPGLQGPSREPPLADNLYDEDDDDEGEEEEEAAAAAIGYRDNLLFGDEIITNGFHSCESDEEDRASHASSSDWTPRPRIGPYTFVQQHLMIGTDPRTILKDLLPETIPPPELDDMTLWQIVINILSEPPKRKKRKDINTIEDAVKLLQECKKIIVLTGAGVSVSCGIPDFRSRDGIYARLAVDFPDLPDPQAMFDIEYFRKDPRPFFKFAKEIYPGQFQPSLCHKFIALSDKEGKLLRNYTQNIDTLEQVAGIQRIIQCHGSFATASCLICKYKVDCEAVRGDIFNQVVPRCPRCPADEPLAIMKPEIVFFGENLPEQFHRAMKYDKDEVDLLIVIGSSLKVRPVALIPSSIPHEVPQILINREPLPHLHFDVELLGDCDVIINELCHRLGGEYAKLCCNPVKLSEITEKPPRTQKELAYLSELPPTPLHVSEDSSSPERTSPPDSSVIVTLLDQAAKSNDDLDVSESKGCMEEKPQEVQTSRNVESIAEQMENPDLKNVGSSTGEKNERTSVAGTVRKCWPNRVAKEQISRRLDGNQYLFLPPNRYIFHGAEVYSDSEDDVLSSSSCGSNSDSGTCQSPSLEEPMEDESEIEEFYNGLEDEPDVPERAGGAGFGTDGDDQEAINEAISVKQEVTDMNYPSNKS
Procedure: (§1) All assays were performed at room temperature in reaction buffer (50 mM HEPES, pH 7.5, 150 mM NaCl, 1 mM DTT, 0.05% BSA). […] To prepare the assays for analysis, 20 μL of reaction volume was mixed in 80 μL of 50:50 acetonitrile:methanol mixture. […] Peak data was integrated using RapidFire Integrator software (Agilent, Santa Clara, Calif.).

SIRT2 = target: T2, SIRT2 (Homo sapiens, UniProt Q8IXJ6); test: SIRT2 deacetylation of Trp 5-mer peptide, OAADPr mass spec assay; format: biochemical; set-up: His-SIRT2(1-389); details: for IC50: Trp 5-mer peptide and NAD at KM, mean of at least three determinations, read-out: IC50 (μM) SIRT2; for pIC50: Trp 5-mer peptide, class symbols, read-out: Trp SIRT2_IC50
T2 sequence (Q8IXJ6 1-389): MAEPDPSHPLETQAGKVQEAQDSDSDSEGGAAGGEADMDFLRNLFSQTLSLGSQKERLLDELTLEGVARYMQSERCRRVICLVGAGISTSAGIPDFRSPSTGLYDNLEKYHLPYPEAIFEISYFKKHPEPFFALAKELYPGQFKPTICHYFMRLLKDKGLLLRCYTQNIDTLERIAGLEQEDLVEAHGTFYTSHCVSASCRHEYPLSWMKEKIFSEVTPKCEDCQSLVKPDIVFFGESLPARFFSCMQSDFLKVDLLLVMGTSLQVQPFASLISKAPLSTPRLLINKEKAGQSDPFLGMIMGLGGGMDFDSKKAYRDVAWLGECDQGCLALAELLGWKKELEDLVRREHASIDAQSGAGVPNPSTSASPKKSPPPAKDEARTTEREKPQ

SIRT1/2/3 = SIRT1/2/3 biochemical assay, statements spanning all three enzymes; set-up: species or system human; details: across SIRT1, SIRT2 and SIRT3
SIRT3 = target: T3, SIRT3 (Homo sapiens, UniProt Q9NTG7); test: SIRT3 deacetylation of Trp 5-mer peptide, OAADPr mass spec assay
T3 sequence (Q9NTG7 102-399): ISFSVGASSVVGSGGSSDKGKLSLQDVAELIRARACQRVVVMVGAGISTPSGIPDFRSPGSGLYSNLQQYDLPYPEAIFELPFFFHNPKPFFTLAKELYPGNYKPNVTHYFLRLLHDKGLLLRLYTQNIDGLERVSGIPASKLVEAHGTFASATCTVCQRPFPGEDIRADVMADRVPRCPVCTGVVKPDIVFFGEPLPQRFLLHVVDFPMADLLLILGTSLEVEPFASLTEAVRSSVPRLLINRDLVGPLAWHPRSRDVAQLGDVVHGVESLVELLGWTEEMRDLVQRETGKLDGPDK
Procedure: as §1

[3] = read-out: IC50 (μM) SIRT1, Trp 5-mer peptide and NAD at KM
[4] = IC50 (μM) SIRT1, Trp 5-mer peptide and NAD at KM
[5] = Trp SIRT3_IC50, Trp 5-mer peptide, class symbols

Structure (SMILES)	pIC50 (SIRT1)	pIC50 (SIRT2)	pIC50 (SIRT3; [5])	further results
CCNC(=O)c1ccc(C(=O)NCCC2CCN(c3ncnc4cc(C(N)=O)sc34)CC2)s1 [Compound 11c]				LogD [1]: 2.09; solubility at 1 hr [2]: 9 µM (≈ 4.38 µg/mL)
CCNC(=O)c1ccc(C(=O)NCCN2CCN(c3ncnc4cc(C(N)=O)sc34)CC2)s1 [Compound 11d]	> 6.00	> 6.00		IC50 (SIRT1; [3]): 0.031 µM; IC50 (SIRT2): 0.005 µM; LogD [1]: 1.32; solubility at 1 hr [2]: 65 µM (≈ 31.7 µg/mL)
NC(=O)c1cc2ncnc(Cl)c2s1 [Compound 14, 4-chlorothieno[3,2-d]pyrimidine-6-carboxamide]	< 5.00	< 5.00	< 5.00	SIRT1/2/3 inhibitory activity, in words (SIRT1/2/3): not conserved; IC50 (SIRT1; [4]): > 50 µM; IC50 (SIRT2): > 50 µM; IC50 (SIRT3; IC50 (μM) SIRT3, Trp 5-mer peptide and NAD at KM, mean of at least three determinations): > 50 µM
CCNC(=O)c1cccc(C(=O)NCCN2CCN(c3ncnc4cc(C(N)=O)sc34)CC2)c1 [Compound 11b]	> 6.00	> 6.00		IC50 (SIRT1; [3]): 0.067 µM; IC50 (SIRT2): 0.01 µM; LogD [1]: 1.45; solubility at 1 hr [2]: 220 µM (≈ 106 µg/mL)
CC1(C)COC(C2CCN(c3ncnc4cc(C(N)=O)sc34)CC2)OC1 [Compound 78, 4-(4-(5,5-dimethyl-1,3-dioxan-2-yl)piperidin-1-yl)thieno[3,2-d]pyrimidine-6-carboxamide]	5.00 to 6.00	5.00 to 6.00	5.00 to 6.00	
Cc1nc(N2CCN(CCNS(C)(=O)=O)CC2)c2sc(C(N)=O)cc2n1 [Compound 158]	< 5.00	5.00 to 6.00	5.00 to 6.00	
COCCN1CCN(c2ncnc3cc(C(N)=O)sc23)CC1 [Compound 45]	5.00 to 6.00	> 6.00	5.00 to 6.00	
NC(=O)c1cc2ncnc(N3CCN(CCO)CC3)c2s1 [Compound 44, 4-(4-(2-hydroxyethyl)piperazin-1-yl)thieno[3,2-d]pyrimidine-6-carboxamide]	5.00 to 6.00	> 6.00	5.00 to 6.00	
NC(=O)c1cc2ncnc(N3CCC(CCNC(=O)C4CCCC4)CC3)c2o1 [Compound 88]	> 6.00	> 6.00	> 6.00	
NCCC1CCN(c2ccnc3cc(C(N)=O)sc23)CC1 [Compound 104, 7-(4-(2-aminoethyl)piperidin-1-yl)thieno[3,2-b]pyridine-2-carboxamide]	5.00 to 6.00	> 6.00	> 6.00	
Cc1nc(N2CCC(CN3CCCC3)CC2)c2sc(C(N)=O)cc2n1 [Compound 147]	< 5.00	5.00 to 6.00	5.00 to 6.00	
Cc1nc(N2CCN(CCNC(=O)OC(C)(C)C)CC2)c2sc(C(N)=O)cc2n1 [Compound 149]	< 5.00	5.00 to 6.00	5.00 to 6.00	
O=C(O)c1cc2ncnc(N3CCC(CN4CCCC4)CC3)c2s1 [Compound 192]	< 5.00	< 5.00	< 5.00	
NCC1CCN(c2ncnc3cc(C(N)=O)sc23)CC1 [Compound 59, 4-(4-(aminomethyl)piperidin-1-yl)thieno[3,2-d]pyrimidine-6-carboxamide]	< 5.00	< 5.00	< 5.00	
NC(=O)c1cc2ncnc(N3CCC(CCNC(=O)C4CCCC4)CC3)c2s1 [Compound 53]	> 6.00	> 6.00	> 6.00	
CCNC(=O)c1ccc(C(=O)NCCC2CCN(c3ncnc4cc(C(=O)NCC)sc34)CC2)s1 [Compound 194]	5.00 to 6.00	5.00 to 6.00	5.00 to 6.00	
CCNC(=O)c1cccc(C(=O)NCCC2CCN(c3ncnc4cc(C(N)=O)sc34)CC2)c1 [Compound 11a, N^1-(2-(1-(6-carbamoylthieno[3,2-d]pyrimidin-4-yl)piperidin-4-yl)ethyl)-N^3-ethylisophthalamide]	> 6.00	> 6.00	> 6.00	IC50 (SIRT1; [4]): 0.014 µM; IC50 (SIRT2): 0.005 µM; LogD [1]: 2.09; pIC50 (SIRT3; SIRT3 IC50, as stated in text): 9.00; solubility at 1 hr [2]: 19 µM (≈ 9.13 µg/mL)
CC(C)(C)OC(=O)NCCC1CCN(c2ncnc3cc(C(=O)O)sc23)CC1 [Compound 189, 4-(4-(2-((tert-butoxycarbonyl)amino)ethyl)piperidin-1-yl)thieno[3,2-d]pyrimidine-6-carboxylic acid]	< 5.00	< 5.00	< 5.00	
NCCC1CCN(c2ncnc3cc(C(N)=O)oc23)CC1 [Compound 95, 4-(4-(2-aminoethyl)piperidin-1-yl)furo[3,2-d]pyrimidine-6-carboxamide]	5.00 to 6.00	> 6.00	5.00 to 6.00	
Cc1c(C(N)=O)sc2c(N3CCC(CCN)CC3)ncnc12 [Compound 117, 4-(4-(2-aminoethyl)piperidin-1-yl)-7-methylthieno[3,2-d]pyrimidine-6-carboxamide]	< 5.00	5.00 to 6.00	5.00 to 6.00	
NC(=O)c1cc2ncnc(N3CCC(C4CCNCC4)CC3)c2o1 [Compound 100, 4-([4,4′-bipiperidin]-1-yl)furo[3,2-d]pyrimidine-6-carboxamide]	< 5.00	< 5.00	5.00 to 6.00	
NC(=O)c1cc2ncnc(N3CCN(CCNC(=O)C4CCCC4)CC3)c2o1 [Compound 98]	> 6.00	> 6.00	> 6.00	
CNCC1CCN(c2ncnc3cc(C(N)=O)sc23)CC1 [Compound 55, 4-(4-((methylamino)methyl)piperidin-1-yl)thieno[3,2-d]pyrimidine-6-carboxamide]	< 5.00	5.00 to 6.00	5.00 to 6.00	
CCNC(=O)c1cccc(C(=O)NCCN2CCN(c3ncnc4ccsc34)CC2)c1 [Compound 190]	< 5.00	< 5.00	< 5.00	
CC(C)(C)OC(=O)NCCN1CCN(c2ncnc3cc(C(N)=O)sc23)CC1 [Compound 15b, tert-butyl (2-(4-(6-carbamoylthieno[3,2-d]pyrimidin-4-yl)piperazin-1-yl)ethyl)carbamate]	> 6.00	> 6.00	> 6.00	
NC(=O)c1cc2ncnc(N3CCC(CCn4ccnc4)CC3)c2s1 [Compound 52]	> 6.00	> 6.00	> 6.00	
CC(C)(C)OC(=O)N1CCC(C2CCN(c3ncnc4cc(C(N)=O)oc34)CC2)CC1 [Compound 94, tert-butyl 1′-(6-carbamoylfuro[3,2-d]pyrimidin-4-yl)-[4,4′-bipiperidine]-1-carboxylate]	5.00 to 6.00	5.00 to 6.00	< 5.00	
NCCC1CCN(c2nccc3cc(C(N)=O)sc23)CC1 [Compound 175, 7-(4-(2-aminoethyl)piperidin-1-yl)thieno[2,3-c]pyridine-2-carboxamide]	< 5.00	< 5.00	< 5.00	
